Source: PubChem BioAssay (NCI)
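Method: 48-hour compound exposure of cells in 96-well plates, five concentrations, linear interpolation of endpoints. The concentration for full growth arrest is given as TGI.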

What was measured:
Experiment in all cases: DTP human tumour cell line panel, 48 h
SK-MEL-2 melanoma = system: SK-MEL-2 melanoma
MALME-3M melanoma = system: MALME-3M melanoma
OVCAR-3 ovarian = system: OVCAR-3 ovarian
U251 CNS = system: U251 CNS
M14 melanoma = system: M14 melanoma
EKVX NSCLC = system: EKVX NSCLC
SK-MEL-5 melanoma = system: SK-MEL-5 melanoma
DU-145 prostate = system: DU-145 prostate
OVCAR-4 ovarian = system: OVCAR-4 ovarian
OVCAR-5 ovarian = system: OVCAR-5 ovarian
RPMI-8226 leukemia = system: RPMI-8226 leukemia
KM12 colon = system: KM12 colon
LOX IMVI melanoma = system: LOX IMVI melanoma
CAKI-1 renal = system: CAKI-1 renal
TK-10 renal = system: TK-10 renal
SW-620 colon = system: SW-620 colon
RXF 393 renal = system: RXF 393 renal
NCI-H460 lung = system: NCI-H460 lung
MDA-MB-435 = system: MDA-MB-435
OVCAR-8 ovarian = system: OVCAR-8 ovarian
MOLT-4 leukemia = system: MOLT-4 leukemia
SNB-19 CNS = system: SNB-19 CNS
MDA-MB-231 breast = system: MDA-MB-231 breast
SR leukemia = system: SR leukemia
SNB-75 CNS = system: SNB-75 CNS
MCF7 breast = system: MCF7 breast
HS 578T breast = system: HS 578T breast
SF-295 CNS = system: SF-295 CNS
CCRF-CEM leukemia = system: CCRF-CEM leukemia
SN12C renal = system: SN12C renal
SF-268 CNS = system: SF-268 CNS
UO-31 renal = system: UO-31 renal
IGROV1 ovarian = system: IGROV1 ovarian
SF-539 CNS = system: SF-539 CNS
PC-3 prostate = system: PC-3 prostate
786-0 renal = system: 786-0 renal
HCC-2998 colon = system: HCC-2998 colon
T-47D breast = system: T-47D breast
COLO 205 colon = system: COLO 205 colon
A549 NSCLC = system: A549 NSCLC
K-562 leukemia = system: K-562 leukemia
UACC-62 melanoma = system: UACC-62 melanoma
NCI-H226 lung = system: NCI-H226 lung
NCI-H23 lung = system: NCI-H23 lung
HT29 colon = system: HT29 colon
MDA-N = system: MDA-N
SK-OV-3 ovarian = system: SK-OV-3 ovarian
UACC-257 melanoma = system: UACC-257 melanoma
ACHN renal = system: ACHN renal
BT-549 breast = system: BT-549 breast
HL-60(TB) leukemia = system: HL-60(TB) leukemia
HCT-15 colon = system: HCT-15 colon
SK-MEL-28 melanoma = system: SK-MEL-28 melanoma
HOP-62 NSCLC = system: HOP-62 NSCLC
HCT-116 colon = system: HCT-116 colon
NCI-H522 lung = system: NCI-H522 lung
NCI/ADR-RES ovarian = system: NCI/ADR-RES ovarian
HOP-92 NSCLC = system: HOP-92 NSCLC

## C=C(COC(=O)C(C)C)[C@H]1Oc2ccc(C(C)=O)cc2[C@@H]1OC(=O)C(C)C
SK-MEL-2 melanoma
  TGI: > 100 µM
MALME-3M melanoma
  TGI: > 100 µM
OVCAR-3 ovarian
  TGI: > 100 µM
U251 CNS
  TGI: > 100 µM
M14 melanoma
  TGI: > 100 µM
EKVX NSCLC
  TGI: > 100 µM
SK-MEL-5 melanoma
  TGI: > 100 µM
DU-145 prostate
  TGI: > 100 µM
OVCAR-4 ovarian
  TGI: > 100 µM
OVCAR-5 ovarian
  TGI: > 100 µM
RPMI-8226 leukemia
  TGI: > 100 µM
KM12 colon
  TGI: > 100 µM
LOX IMVI melanoma
  TGI: > 100 µM
CAKI-1 renal
  TGI: > 100 µM
TK-10 renal
  TGI: > 100 µM
SW-620 colon
  TGI: > 100 µM
RXF 393 renal
  TGI: > 100 µM
NCI-H460 lung
  TGI: > 100 µM
MDA-MB-435
  TGI: > 100 µM
OVCAR-8 ovarian
  TGI: > 100 µM
MOLT-4 leukemia
  TGI: > 100 µM
SNB-19 CNS
  TGI: > 100 µM
MDA-MB-231 breast
  TGI: > 100 µM
SR leukemia
  TGI: > 100 µM
SNB-75 CNS
  TGI: > 100 µM
MCF7 breast
  TGI: > 100 µM
HS 578T breast
  TGI: > 100 µM
SF-295 CNS
  TGI: > 100 µM
CCRF-CEM leukemia
  TGI: > 100 µM
SN12C renal
  TGI: > 100 µM
SF-268 CNS
  TGI: > 100 µM
UO-31 renal
  TGI: > 100 µM
IGROV1 ovarian
  TGI: > 100 µM
SF-539 CNS
  TGI: > 100 µM
PC-3 prostate
  TGI: > 100 µM
786-0 renal
  TGI: > 100 µM
HCC-2998 colon
  TGI: > 100 µM
T-47D breast
  TGI: > 100 µM
COLO 205 colon
  TGI: > 100 µM
A549 NSCLC
  TGI: > 100 µM
K-562 leukemia
  TGI: > 100 µM
UACC-62 melanoma
  TGI: > 100 µM
NCI-H226 lung
  TGI: > 100 µM
NCI-H23 lung
  TGI: > 100 µM
HT29 colon
  TGI: > 100 µM
MDA-N
  TGI: > 100 µM
SK-OV-3 ovarian
  TGI: > 100 µM
UACC-257 melanoma
  TGI: > 100 µM
ACHN renal
  TGI: > 100 µM
BT-549 breast
  TGI: > 100 µM
HL-60(TB) leukemia
  TGI: > 100 µM
HCT-15 colon
  TGI: > 100 µM
SK-MEL-28 melanoma
  TGI: > 100 µM
HOP-62 NSCLC
  TGI: > 100 µM
HCT-116 colon
  TGI: > 100 µM

## CC(=O)N1C(OCc2ccccc2)CCN1c1ccccc1 (configuration not stated)
SK-MEL-2 melanoma
  TGI: > 10 µM
MALME-3M melanoma
  TGI: > 10 µM
OVCAR-3 ovarian
  TGI: > 10 µM
M14 melanoma
  TGI: > 10 µM
SK-MEL-5 melanoma
  TGI: > 10 µM
DU-145 prostate
  TGI: > 10 µM
OVCAR-4 ovarian
  TGI: > 10 µM
OVCAR-5 ovarian
  TGI: > 10 µM
RPMI-8226 leukemia
  TGI: > 10 µM
LOX IMVI melanoma
  TGI: > 10 µM
CAKI-1 renal
  TGI: > 10 µM
TK-10 renal
  TGI: > 10 µM
SW-620 colon
  TGI: > 10 µM
RXF 393 renal
  TGI: > 10 µM
NCI-H460 lung
  TGI: > 10 µM
MDA-MB-435
  TGI: > 10 µM
OVCAR-8 ovarian
  TGI: > 10 µM
MOLT-4 leukemia
  TGI: > 10 µM
SNB-19 CNS
  TGI: > 10 µM
MDA-MB-231 breast
  TGI: > 10 µM
SR leukemia
  TGI: > 10 µM
SNB-75 CNS
  TGI: > 10 µM
HS 578T breast
  TGI: > 10 µM
SF-295 CNS
  TGI: > 10 µM
CCRF-CEM leukemia
  TGI: > 10 µM
SN12C renal
  TGI: > 10 µM
SF-268 CNS
  TGI: > 10 µM
NCI-H522 lung
  TGI: > 10 µM
UO-31 renal
  TGI: > 10 µM
IGROV1 ovarian
  TGI: > 10 µM
SF-539 CNS
  TGI: > 10 µM
PC-3 prostate
  TGI: > 10 µM
786-0 renal
  TGI: > 10 µM
NCI/ADR-RES ovarian
  TGI: > 10 µM
T-47D breast
  TGI: > 10 µM
COLO 205 colon
  TGI: > 10 µM
A549 NSCLC
  TGI: > 10 µM
K-562 leukemia
  TGI: > 10 µM
NCI-H226 lung
  TGI: > 10 µM
HOP-92 NSCLC
  TGI: > 10 µM
NCI-H23 lung
  TGI: > 10 µM
HT29 colon
  TGI: > 10 µM
MDA-N
  TGI: > 10 µM
SK-OV-3 ovarian
  TGI: > 10 µM
UACC-257 melanoma
  TGI: > 10 µM
ACHN renal
  TGI: > 10 µM
BT-549 breast
  TGI: > 10 µM
HL-60(TB) leukemia
  TGI: > 10 µM
HCT-15 colon
  TGI: > 10 µM
SK-MEL-28 melanoma
  TGI: > 10 µM
HOP-62 NSCLC
  TGI: > 10 µM
HCT-116 colon
  TGI: > 10 µM
